Key:
[1] = biological target: T1, P-glycoprotein (P-gp) (Homo sapiens, UniProt P08183); test: biochemical
T1 construct: gene ABCB1

[2] = biological target: T1, P-glycoprotein (P-gp)

T1 sequence (P08183 whole entry): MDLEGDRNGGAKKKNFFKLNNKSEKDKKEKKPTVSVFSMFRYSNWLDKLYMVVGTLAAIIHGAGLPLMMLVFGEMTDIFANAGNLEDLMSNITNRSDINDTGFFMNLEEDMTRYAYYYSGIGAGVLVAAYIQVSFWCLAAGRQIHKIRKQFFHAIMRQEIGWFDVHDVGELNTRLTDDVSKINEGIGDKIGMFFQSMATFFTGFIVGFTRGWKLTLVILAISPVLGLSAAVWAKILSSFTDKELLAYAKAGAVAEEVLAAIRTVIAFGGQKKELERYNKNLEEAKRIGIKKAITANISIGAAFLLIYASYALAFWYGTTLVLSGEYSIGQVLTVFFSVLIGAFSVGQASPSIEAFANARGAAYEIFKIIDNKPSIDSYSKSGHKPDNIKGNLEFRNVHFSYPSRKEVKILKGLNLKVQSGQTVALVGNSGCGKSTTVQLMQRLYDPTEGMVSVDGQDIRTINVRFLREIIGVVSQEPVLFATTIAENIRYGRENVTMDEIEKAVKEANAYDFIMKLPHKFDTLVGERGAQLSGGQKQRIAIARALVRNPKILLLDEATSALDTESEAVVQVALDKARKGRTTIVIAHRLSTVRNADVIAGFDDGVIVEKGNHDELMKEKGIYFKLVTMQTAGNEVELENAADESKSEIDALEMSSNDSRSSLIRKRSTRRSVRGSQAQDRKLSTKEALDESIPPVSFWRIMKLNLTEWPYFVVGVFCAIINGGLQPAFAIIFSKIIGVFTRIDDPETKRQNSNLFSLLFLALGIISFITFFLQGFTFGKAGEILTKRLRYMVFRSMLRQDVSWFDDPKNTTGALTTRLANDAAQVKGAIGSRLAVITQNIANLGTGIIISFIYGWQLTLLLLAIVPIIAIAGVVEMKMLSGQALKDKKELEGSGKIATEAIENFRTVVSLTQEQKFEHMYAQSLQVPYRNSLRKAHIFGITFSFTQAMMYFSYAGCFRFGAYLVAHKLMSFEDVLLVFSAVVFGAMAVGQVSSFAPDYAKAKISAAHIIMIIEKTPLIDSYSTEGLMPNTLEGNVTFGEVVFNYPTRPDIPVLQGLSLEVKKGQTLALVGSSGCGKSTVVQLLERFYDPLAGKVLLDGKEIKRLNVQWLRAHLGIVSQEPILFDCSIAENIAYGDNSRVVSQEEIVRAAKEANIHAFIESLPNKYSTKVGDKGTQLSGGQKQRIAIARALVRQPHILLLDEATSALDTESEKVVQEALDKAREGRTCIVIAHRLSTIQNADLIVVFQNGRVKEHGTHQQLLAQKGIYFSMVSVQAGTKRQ

SMILES	EC50 [1]	[3H]-paclitaxel accumulation and efflux in P-gp-overexpressing KB-C2 versus pare [2]
Cn1cc(-c2cnn3c(N)c(Br)c([C@@H]4CCCNC4)nc23)cn1 [MK-8776]	3.8 µM	–
CC(=O)O[C@H]1C(=O)[C@@]2(C)[C@H]([C@H](OC(=O)c3ccccc3)[C@]3(O)C[C@H](OC(=O)[C@H](O)[C@@H](NC(=O)c4ccccc4)c4ccccc4)C(C)=C1C3(C)C)[C@]1(OC(C)=O)CO[C@@H]1C[C@@H]2O [paclitaxel]	–	[^3H]-paclitaxel efflux increased significantly compared with that in their parental KB-3-1 cells

— publication PMC6747525, “Chk1 Inhibitor MK-8776 Restores the Sensitivity of Chemotherapeutics in P-glycoprotein Overexpressing Cancer Cells” (International Journal of Molecular Sciences, 2019)
